Data on 42 compounds can be found in a melting point compilation (Tetko et al.).

Structures are written as SMILES.

On to `Cc1ccc(-c2csc(/C(C#N)=N\Nc3ccc(Cl)cc3Cl)n2)cc1`, for which the melting point was determined as 211 °C.
In turn, `Cc1nnc(Sc2ccc(C=O)o2)n1C` showed a melting point of 143 to 147 °C.
`NS(=O)(=O)c1cccc([N+](=O)[O-])c1`: the melting point worked out at 167 °C.
The result for `CC1=C(O)C(=O)CC(C)(C)C1` reads 89 °C.
Compound `Nc1ccccc1CCCCc1ccccc1N` returned a melting point of 74 °C.
On to `O=c1[nH]c2ccc(S(=O)(=O)CCO)cc2o1`, for which the melting point lay within 207 to 211 °C.
`CNCC(O)c1ccc(O)c(O)c1` (configuration not stated): the melting point turned out to be 218 °C.
For `O=S1(=O)Cc2ncc3ccccc3c2C1` the value was 210 °C; for `CCC1=C(C=NNc2ccc([N+](=O)[O-])cc2[N+](=O)[O-])CCCC1`, 192 to 194 °C.
In turn, `Cc1c(S(=O)(=O)c2ccc(Cl)cc2)csc1C(=O)NN` returned a melting point of 165 to 168 °C.
The result for `CC(C)(C)OC(=O)N[C@H](CC#N)Cc1ccccc1` reads 120 to 125 °C; that for `O=C1CCCc2c1c1c3c(ccc4c3c2CCC4)CCC1`, 146 to 149 °C; that for `O=C(C1=NOC2C(=O)N(c3cccc([N+](=O)[O-])c3)C(=O)C12)c1cccc2ccccc12` (configuration not stated), 191 °C.
For `O=C1CN=C(c2ccccc2)c2cc([N+](=O)[O-])ccc2N1` the value was 225 °C.
In turn, `OCCNc1ccccc1` registered a melting point of 11 °C.
For `C=Cc1cccc(C(N)=O)c1` the value was 133 °C.
The result for `O=C(N=Nc1ccccc1)NNc1ccccc1` reads 153 to 157 °C; that for `COC(=O)C1c2ccccc2C(=O)OC1c1ccc([N+](=O)[O-])cc1` (configuration not stated), 134 °C; that for `COc1ccc2nnc(-c3ccc(C(F)(F)F)cc3)n2n1`, 142 °C.
In the case of `N#CC1=C(N)Oc2c(Br)cc(Br)cc2C1C(C#N)C#N` (configuration not stated), the melting point came out at 300 °C.
For `CN(C)c1ccc(N=C=O)cc1` the value was 38 °C; for `CCCCCCCC(=O)OC1CCC2(C)C(=CCC3C2CCC2(C)C(C(C)CCCC(C)C)CCC32)C1` (configuration not stated), 110 °C; for `CCOC(=O)C12C(c3cc(Cl)ccc3OP1(=O)OCC)C1(C(=O)OCC)C2c2cc(Cl)ccc2OP1(=O)OCC` (configuration not stated), 256 to 258 °C.
In the case of `N=C(N)NC(=N)N`, the melting point is 136 °C.
Consider `CCCCCCC(O)CCCCCCCCCCC(=O)O` (configuration not stated), for which the melting point was 77.8 °C.
For `CCOC(=O)CC(=O)c1cc(OC)c(OC)c(OC)c1`, the melting point lay within 86 to 91 °C.
`Oc1ccc2c(c1)Cc1ccccc1-2` registered a melting point of 168 °C.
The result for `CN(C(=O)C(F)(F)C(F)(F)C(F)(F)C(F)(F)C(F)(F)C(F)(F)C(F)(F)C(F)(F)F)C1CCCCC1` reads 57 °C; that for `Cc1cc(C(=O)NCCc2ccc(S(=O)(=O)NC(=O)NN3CCCCCC3)cc2)no1`, 189 °C; that for `CCCCOCCOP(=O)(OCCOCCCC)OCCOCCCC`, -70 °C.
For `c1ccc2c(c1)ccc1[nH]c3ccc4ccccc4c3c12` the value was 158 °C.
For `Ic1ccc(-c2ccc(I)cc2)cc1` the value was 207 °C.
As to `CCCCCCc1ccc(O)cc1`, the melting point is 32 °C.
`Nc1ncc(F)cc1F` showed a melting point of 57 °C.
For the compound `CCCCCCC(CCCCCC)CCCCCC`, the melting point is -28.3 °C.
As to `O=C(Nc1ccccc1)C(Cl)=NNc1ccccc1`, the melting point is 159 to 161 °C.
The result for `O=C(O)c1ccc(C(F)(F)F)cc1C(F)(F)F` reads 109 to 113 °C.
For `O=C1Cc2cccc3cccc1c23` the value was 121 °C; for `O=S1(=O)CC(Br)C(Br)C1` (configuration not stated), 143 °C; for `O=S1(=O)CCN(Cc2ccccc2)CC1`, 85 to 86 °C.
`C=C(C)C(=O)C(=CC(=O)O)OC` came in with a melting point of 83 °C.
The result for `CCOC(=O)c1cnc2c(c(C)nn2C)c1Oc1ccc(F)cc1` reads 110 to 112 °C.

A word on the melting point: it is the temperature, or range, at which the solid turns liquid.
